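Here, GI50 denotes the concentration required for 50% inhibition of growth.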
Test system: HL-60(TB) leukemia
Assay: NCI tumour cell line growth inhibition, 384-well format

`CNNCc1ccc(C(=O)NC(C)C)cc1` gave a GI50 of 12.2 µM.

Reference: PubChem BioAssay (NCI)
